Reference: US20080206253A1, “Method For Preventing or Treating Pain in a Mammal” (priority 2005, published 2008)
“Also recorded” adds a separate entry of the source.

How the values were obtained:
[1] = test system: phosphorylated p38 (P-p38); assay: Formalin-induced phosphorylation of spinal p38 (Western blot); type: in vivo, rat; details: IT p38α AS 30 μg or p38β AS 20 μg for 5 days; assessed 15 minutes after formalin; in comparison to MS treated rats
Method: Injection of formalin into the hind paw leads to phosphorylation of p38 MAP kinase in spinal cord, by 5 minutes after injection. Svensson et al., J Neurochem 86: 1534-1544, 2003b. A full time course was performed (0, 5, 15, 20, 30, 60 min) for formalin-induced phosphorylation of spinal p38 and found peak p38 phosphorylation at 15 min (FIG. 6A). As shown above, down regulation of spinal p380, leads to attenuation of formalin-induced hyperalgesia, it was hypothesized that down-regulation of spinal p38, would reduce the amount of phosphorylated p38 in the spinal cord after formalin injection.
(A) Representative western blots showing levels of P-p38, total p38 and β-actin in the contralateral (left side) and ipsilateral (right side) lumbar spinal cord at different time points after injection of formalin (2.5%, 50 μl) into the dorsal side of the right hind paw. (B) Rats were naïve (no IT treatment, no formalin paw injection) or treated with p38α AS (30 μg), p38β AS (20 μg) or missense (30 μg) for 5 days. On day six, formalin was injected to the hind paw and the level of phosphorylated p38 (P-p38) assessed 15 minutes after injection. […]
Western blot. […] After washing, the antibody-protein complexes were probed with appropriate secondary antibodies labeled with horseradish peroxidase for 1 hr at room temperature and detected with chemiluminescent reagents (SuperSignal, Pierce, Rockford, Ill.). […]

[2] = test system: phosphorylated p38 (P-p38); assay: IT substance P-evoked spinal p38 phosphorylation (Western blot); type: in vivo, rat; details: IT AS daily for five days, assessed 30 minutes after IT SP injection, compared to the MS group
Method: Yaksh et al., Nature 286: 155-157, 1980; Yaksh, Trends Pharmacol Sci 20: 329-337, 1999. […] Malmberg and Yaksh, Science 257: 1276-1279, 1992; Svensson et al., J Neurochem 86: 1534-1544, 2003. […] To investigate the contribution of p38α and p38β to SP-evoked hyperalgesia and p38 phosphorylation, spinal delivery of p38α and p38β AS and MS was carried out. Thermal withdrawal latencies was assessed after IT injection of SP and lumbar spinal cords collected immediately to compare the degree of spinal p38 phosphorylation at the hypothesized time of peak phosphorylation. IT injection of SP into the MS group produced an expected reduction of thermal withdrawal latency in comparison with IT saline injection into to vehicle treated animals (FIG. 7C). […] In contrast, IT SP-induced thermal hyperalgesia was attenuated in rats which had received p38β AS (FIG. 7E). […] Stripping and reprobing the western blot membranes confirmed that p38α protein expression was knocked down in p38α AS treated group (FIG. 7D) as well as p38β in the p38β AS group (FIG. 7F).
(A) Graph displaying paw withdrawal latency (PWL) plotted versus time. […] (B) Representative western blots showing levels of P-p38, total p38 and β-actin in lumbar spinal cord at different time points after IT injection of SP (30 nmol). IT-SP induced p38 phosphorylation peaks 30 minutes after SP injection. (C, E) Graph showing PWL assessed 15 and […] after bolus injection of IT saline or IT SP injection in rats treated with IT ACSF, MS (30 μg), p38α AS (30 fig) or p38β AS (20 μg) daily for five days. […] IT injection of MS or ACSF had no effect on IT SP-evoked thermal hyperalgesia. Each time point represents the mean ±SEM (n=4-5 per group). (D, F) Representative western blots showing the level of P-p38, p38α and p38β and β-actin protein expression assessed 30 minutes after IT SP injection.
Western blot. Prior to sacrifice, rats were deeply anesthetized and after decapitation the spinal cords were ejected from the vertebral column by a saline-filled syringe. The lumbar part of the spinal cord was immediately homogenized in extraction buffer (50 mM Tris buffer, pH 8.0, containing 0.5% Triton X-100, 150 mM NaCl, 1 mM EDTA, phosphatase and protease inhibitors) by sonication. […] After washing, the antibody-protein complexes were probed with appropriate secondary antibodies labeled with horseradish peroxidase for 1 hr at room temperature and detected with chemiluminescent reagents (SuperSignal, Pierce, Rockford, Ill.). […] Intensity of immunoreactive bands was quantified using ImageQuant software (Molecular Dynamics, Sunnyvale, Calif.). p38 immuno-positive bands were normalized relative to β-actin.

Row | Substance | phosphorylated p38 in the spinal cord after formalin injection [1] | phosphorylation of spinal p38 following IT SP [2] | phosphorylation of spinal p38 following IT SP ([2]; listed as p38 AS)
1 | p38α AS: 20-nucleotide 2′-MOE phosphorothioate chimeric antisense AGGTGCTCAGGACTCCATTT, beginning at position 1081 in the rat p38α mRNA (all phosphorothioate, sugars by position and methylation of C not given here; 2'-MOE chimeric (gapmer) antisense) | did not prevent spinal p38 phosphorylation | did not show a reduction; also recorded: No difference in P-p38 | –
2 | p38β AS: 20-nucleotide 2′-MOE phosphorothioate chimeric antisense GTATGTCCTCCTCGCGTGGA, beginning at position 439 in the rat p38β mRNA (all phosphorothioate, sugars by position and methylation of C not given here; 2'-MOE chimeric (gapmer) antisense) | reduction of phosphorylated p38 | pronounced reduction | significantly lower
